{"source": "patent US20200078379A1", "about": "“DEFEROXAMINE DERIVATIVES AS MEDICAMENTS” (BIOTECHNOLOGICKY USTAV AV CR, V.V.I., priority 2017, published 2020)", "key": {"[1]": {"system": "murine triple negative breast cancer cell line 4T1", "assay": "crystal violet assay, cellular viability", "format": "cell-based", "conditions": "Mus musculus, 4T1, 48 hours", "description": "(§1) Compound 1 and compound 2 were tested in their efficacy to kill malignant MCF7 cancer cells. Briefly, 10.000 cells per well were seeded in a 96-well plat on one day and the next day selected compounds were added and incubated with the cells for 48 hrs. The cells were then fixed with 4% paraformaldehyde, stained with 0.05% crystal violet, washed with PBS, and solubilized in 1% SDS. The absorbance of the plate at 595 nm was then measured, quantifying the number of viable cells.\n(§2) A number of compounds of the present invention were tested for cytotoxicity towards at least some of human breast cancer cell lines (MCF7, MDA-MB-231), human fibroblast (BJ) and murine triple negative breast cancer cell line 4T1 (Table 2)."}, "MCF7 cells [2]": {"system": "MCF7 cells", "assay": "crystal violet assay, cellular viability", "format": "cell-based, human", "conditions": "for IC50: MCF7, 48 h, read-out: IC50 cellular viability", "description": "as §1, §2"}, "MDA-MB-231 cells [3]": {"system": "MDA-MB-231 cells", "assay": "crystal violet assay, cellular viability", "format": "cell-based, human", "conditions": "Homo sapiens, read-out: IC50 cellular viability", "description": "as §1, §2"}, "BT474 cells": {"system": "BT474 cells", "assay": "AnnexinV/PI cell death assay", "format": "cell-based", "conditions": "BT474, 200 μM, 48 hrs", "description": "(§3) To confirm such findings by an independent method, cell death-inducing potency (cytotoxic efficacy) of DFO and compound 2 have been tested via annexin V/PI staining commonly used as a measure of apoptotic/necrotic cell death. Briefly, cells were seeded in 12-well plate at 100,000 per well, incubated with the selected compounds for 48 hours, then floating cells were spun, adherent cells trypsinized and spun as well followed by the staining with AnnexinV-FITC and PI probes. Cells were then washed with PBS and measured via Fluorescence Activated Sorter."}, "BT549 cells": {"system": "BT549 cells", "assay": "AnnexinV/PI cell death assay", "format": "cell-based", "conditions": "BT549, 200 μM, 48 hrs", "description": "as §3"}, "T47D cells [4]": {"system": "T47D cells", "assay": "crystal violet assay, cellular viability", "format": "cell-based", "conditions": "48 hours"}, "[5]": {"system": "non malignant cells (BJ), human fibroblast", "assay": "crystal violet assay, cellular viability", "format": "cell-based", "description": "as §1, §2"}, "MCF7 cells [6]": {"system": "MCF7 cells", "assay": "cellular proliferation in real time, Xcelligence technology", "format": "cell-based", "description": "The ability of compound 2 to affect the proliferation and cell death induction in real time was monitored by the Xcelligence technology that detects changes in electrical impedance related to the cell number. In brief, special 16-well e-plates containing gold electrodes were filled with medium, blank values were recorded, and then 5.000 cells per well were seeded in the plate and let to attach for 2 hours, followed by the addition of compounds. The electrical impedance was then monitored over time in real-time every 15 minutes. In this case a line is drawn that reflects the cell number over time. […] We have seen a clear inhibition of proliferation with compound 2 at 1 μM, complete block of proliferation at 2 μM concentration, while the cytotoxic effect is seen at 5 μM (Table 9)."}, "MDA-MB-231 cells [7]": {"system": "MDA-MB-231 cells", "assay": "AnnexinV/PI cell death assay", "format": "cell-based, human", "conditions": "MDA-MB-231, 200 μM, 48 hrs", "description": "as §3"}, "MCF7 cells [8]": {"system": "MCF7 cells", "assay": "AnnexinV/PI cell death assay", "format": "cell-based, human", "description": "Briefly, cells were seeded in 12-well plate at 100,000 per well, incubated with the selected compounds for 48 hours, then floating cells were spun, adherent cells trypsinized and spun as well followed by the staining with AnnexinV-FITC and PI probes. Cells were then washed with PBS and measured via Fluorescence Activated Sorter."}, "T47D cells [9]": {"system": "T47D cells", "assay": "AnnexinV/PI cell death assay", "format": "cell-based", "conditions": "200 μM, 48 hrs", "description": "as §3\nSince compound 2 is an iron chelator, we have evaluated the effect of pretreating compound 2 with iron. at a 1:1 ratio by using the Annexin V/PI staining as in example 7."}, "non malignant cells (BJ)": {"system": "non malignant cells (BJ)", "assay": "AnnexinV/PI cell death assay", "format": "cell-based", "description": "as §3\nWe have then analyzed the percentage of death cells by the annexinV/PI staining as described in example 7. We have observed a significant potentiation in cell death induction when gallium was combined with compound 2 (Table 14)"}, "[10]": {"conditions": "MDA-MB-231, 48 hours, crystal violet"}}, "note": "Where two headings read alike, the source gives them in different places."}
{"smiles": "CCCC[P+](CCCC)(CCCC)CCCCCCCCCCN(CCCCCCCCCC[P+](CCCC)(CCCC)CCCC)CCCCCN(O)C(=O)CCC(=O)NCCCCCN(O)C(=O)CCC(=O)NCCCCCN(O)C(C)=O", "note": "[Compound 6, 42,42-dibutyl-3,14,25-trihydroxy-2,10,13,21,24-pentaoxo-31-(10-(tributylphosphonio)decyl)-3,9,14,20,25,31-hexaaza-42-phosphahexatetracontane-31,42-diium trichloride]", "values": [{"measurement": "IC50", "setting": "[1]", "result": 4900, "unit": "nM"}, {"measurement": "IC50", "setting": "MCF7 cells [2]; Homo sapiens, crystal violet", "result": 3000, "unit": "nM"}, {"measurement": "IC50", "setting": "MDA-MB-231 cells [3]; [10]", "result": 2800, "unit": "nM"}]}
{"smiles": "CC(=O)N(O)CCCCCNC(=O)CCC(=O)N(O)CCCCCNC(=O)CCC(=O)N(O)CCCCCN(CCCCCCCCCC[P+](Cc1ccccc1)(Cc1ccccc1)Cc1ccccc1)CCCCCCCCCC[P+](Cc1ccccc1)(Cc1ccccc1)Cc1ccccc1", "note": "[Compound 9, 2,2-dibenzyl-19,30,41-trihydroxy-20,23,31,34,42-pentaoxo-1-phenyl-13410-(tribenzylphosphonio)decyl)-13,19,24,30,35,41-hexaaza-2-phosphatritetracontane-2,13-diium trichloride]", "values": [{"measurement": "IC50", "setting": "[1]", "result": 1800, "unit": "nM"}, {"measurement": "IC50", "setting": "MCF7 cells [2]; Homo sapiens, crystal violet", "result": 900, "unit": "nM"}, {"measurement": "IC50", "setting": "MDA-MB-231 cells [3]; MDA-MB-231, 48 h", "result": 800, "unit": "nM"}]}
{"smiles": "CC(=O)N(O)CCCCCNC(=O)CCC(=O)N(O)CCCCCNC(=O)CCC(=O)N(O)CCCCCN", "note": "[DFO, deferoxamine]", "values": [{"measurement": "mean percentage of dead cells (AnnexinV/PI)", "setting": "BT474 cells", "result": 19.2, "unit": "%"}, {"measurement": "mean percentage of dead cells (AnnexinV/PI)", "setting": "BT549 cells", "result": 18.3, "unit": "%"}, {"measurement": "Selectivity index (IC50 non-malignant/IC50 malignant)", "setting": "T47D cells [4]; BJ vs T47D", "result": 0.80}, {"measurement": "IC50", "setting": "T47D cells [4]; Homo sapiens, T47D, crystal violet, read-out: IC50 cellular viability", "result": 272000, "unit": "nM"}, {"measurement": "Selectivity index (IC50 non-malignant/IC50 malignant)", "setting": "[5]; BJ vs BJ (reference)", "result": 1}, {"measurement": "IC50", "setting": "[5]; Homo sapiens, Fibroblast, BJ non malignant, 48 hours, crystal violet", "result": 219000, "unit": "nM"}, {"measurement": "slope of the line (relative number of cells in relation to time)", "setting": "MCF7 cells [6]; MCF7, 0-15 h, 1 μM", "result": 1.02}, {"measurement": "slope of the line (relative number of cells in relation to time)", "setting": "MCF7 cells [6]; MCF7, 0-15 h, 2 μM", "result": 1.12}, {"measurement": "slope of the line (relative number of cells in relation to time)", "setting": "MCF7 cells [6]; MCF7, 0-15 h, 5 μM", "result": 1.01}, {"measurement": "slope of the line (relative number of cells in relation to time)", "setting": "MCF7 cells [6]; MCF7, 0-36 h, 1 μM", "result": 1.31}, {"measurement": "slope of the line (relative number of cells in relation to time)", "setting": "MCF7 cells [6]; MCF7, 0-36 h, 2 μM", "result": 1.53}, {"measurement": "slope of the line (relative number of cells in relation to time)", "setting": "MCF7 cells [6]; MCF7, 0-36 h, 5 μM", "result": 0.50}, {"measurement": "mean percentage of dead cells (AnnexinV/PI)", "setting": "MDA-MB-231 cells [7]", "result": 22.4, "unit": "%"}, {"measurement": "mean percentage of dead cells (AnnexinV/PI)", "setting": "MCF7 cells [8]; MCF7, 200 μM, 48 hrs", "result": 45.0, "unit": "%"}, {"measurement": "mean percentage of dead cells (AnnexinV/PI)", "setting": "T47D cells [9]", "result": "14.1 (7.2) %"}, {"measurement": "mean percentage of dead cells (AnnexinV/PI)", "setting": "non malignant cells (BJ); 200 μM, 48 hrs", "result": 10.5, "unit": "%"}, {"measurement": "Selectivity index (IC50 non-malignant/IC50 malignant)", "setting": "MCF7 cells [2]; BJ vs MCF7, 48 hours", "result": 1.72}, {"measurement": "viability at 2 µM", "setting": "MCF7 cells [2]; Homo sapiens, MCF7, 2 μM, 48 hrs, crystal violet, read-out: mean percentage of viable cells compared to non-treated controls", "result": 92, "unit": "%"}, {"measurement": "viability at 5 µM", "setting": "MCF7 cells [2]; Homo sapiens, MCF7, 5 μM, 48 hrs, crystal violet, read-out: mean percentage of viable cells compared to non-treated controls", "result": 95.9, "unit": "%"}, {"measurement": "viability at 10 µM", "setting": "MCF7 cells [2]; Homo sapiens, MCF7, 10 μM, 48 hrs, crystal violet, read-out: mean percentage of viable cells compared to non-treated controls", "result": 92.2, "unit": "%"}]}
{"smiles": "CC(=O)N(O)CCCCCNC(=O)CCC(=O)N(O)CCCCCNC(=O)CCC(=O)N(O)CCCCCN(CCCCCCCCCCCC[P+](c1ccccc1)(c1ccccc1)c1ccccc1)CCCCCCCCCCCC[P+](c1ccccc1)(c1ccccc1)c1ccccc1", "note": "[Compound 8, Triphenyl(3,14,25-trihydroxy-2,10,13,21,24-pentaoxo-31-(12-(triphenylphosphonio)dodecyl)-3,9,14,20,25,31-hexaazatritetracontan-31-ium-43-yl)phosphonium trichloride]", "values": [{"measurement": "IC50", "setting": "[1]", "result": 1200, "unit": "nM"}, {"measurement": "IC50", "setting": "MCF7 cells [2]; Homo sapiens, crystal violet", "result": 500, "unit": "nM"}, {"measurement": "IC50", "setting": "MDA-MB-231 cells [3]; MDA-MB-231, 48 h", "result": 600, "unit": "nM"}]}
{"smiles": "CCCCCCCC[P+](CCCCCCCC)(CCCCCCCC)CCCCCCCCCCN(CCCCCCCCCC[P+](CCCCCCCC)(CCCCCCCC)CCCCCCCC)CCCCCN(O)C(=O)CCC(=O)NCCCCCN(O)C(=O)CCC(=O)NCCCCCN(O)C(C)=O", "note": "[Compound 10, 3,14,25-trihydroxy-42,42-dioctyl-2,10,13,21,24-pentaoxo-31-(10-(trioctylphosphonio)decyl)-3,9,14,20,25,31-hexaaza-42-phosphapentacontane-31,42-diium trichloride]", "values": [{"measurement": "IC50", "setting": "[1]", "result": 1300, "unit": "nM"}, {"measurement": "IC50", "setting": "MCF7 cells [2]; Homo sapiens, crystal violet", "result": 800, "unit": "nM"}, {"measurement": "IC50", "setting": "MDA-MB-231 cells [3]; [10]", "result": 700, "unit": "nM"}]}
{"smiles": "[Cl][Ga]([Cl])[Cl]", "note": "[GaCl3, gallium chloride, reference compound]", "values": [{"measurement": "percentage of death cells by annexinV/PI staining", "setting": "MCF7 cells [8]; MCF7, ratio Ga:compound 2 1:0, 5 μM gallium salt alone", "result": "5.9 (2.5)"}, {"measurement": "percentage of death cells by annexinV/PI staining", "setting": "non malignant cells (BJ); ratio Ga:compound 2 1:0, 5 μM gallium salt alone", "result": "2.4 (0.1)"}]}
{"smiles": "CC(=O)N(O)CCCCCNC(=O)CCC(=O)N(O)CCCCCNC(=O)CCC(=O)N(O)CCCCCN(CCCCCCCCCC[P+](C1CCCCC1)(C1CCCCC1)C1CCCCC1)CCCCCCCCCC[P+](C1CCCCC1)(C1CCCCC1)C1CCCCC1", "note": "[Compound 4, Tricyclohexyl(3,14,25-trihydroxy-2,10,13,21,24-pentaoxo-31-(10-(tricyclohexylphosphonio)decyl)-3,9,14,20,25,31-hexaazahentetracontan-31-ium-41-yl) phosphonium trichloride]", "values": [{"measurement": "IC50", "setting": "[1]", "result": 1800, "unit": "nM"}, {"measurement": "IC50", "setting": "MCF7 cells [2]; Homo sapiens, crystal violet", "result": 700, "unit": "nM"}, {"measurement": "IC50", "setting": "MDA-MB-231 cells [3]; MDA-MB-231, 48 h", "result": 1300, "unit": "nM"}]}
